Assay results from US9902696B2, “1,4-substituted piperidine derivatives” (Cephalon, Inc., priority 2015, dated 2018).
Counter-ions that a name gives are not always drawn.

biological target: T1, recombinant human baculovirus-expressed GST-tagged FASN (Homo sapiens, UniProt P49327); experiment: FASN enzyme activity assay, fluorescence-based detection of CoA with CPM; type: biochemical; details: 5 nM FASN, 150 μM NADPH, 10 μM acetyl-CoA, 25 μM malonyl-CoA, 90 minutes incubation; read-out: IC50 data for Additional Compounds of Formulae I-V(a): Activity
T1 construct: GST
Source text: FASN Enzyme activity may be determined by detecting coenzyme A (CoA), a product of FASN-catalyzed synthesis of palmitate from acetyl-CoA and malonyl-CoA with NADPH as a cofactor. The assay is fluorescence-based and measures the interaction of free CoA with 7-diethylamino-3-(4′-malemimidylphenyl)-4-methylcoumarin (CPM; Life Technologies, CA) as described in Chung et al (2008). The coumarin derivative CPM contains a thiol-reactive maleimide that becomes fluorescent upon interaction with the sulfhydryl group of CoA.
For the example compounds described herein, the reaction was performed in 384-well low volume non-binding plates (Corning, N.Y.) using recombinant human baculovirus-expressed GST-tagged FASN. The 20-μL assay mixture contained 50 mM HEPES (pH 7.5), 5 nM FASN, 150 μM NADPH (Sigma, St. Louis, Mo.), 10 μM acetyl-CoA (Sigma), 25 μM malonyl-CoA (Sigma) and test compound [diluted in dimethyl sulfoxide (DMSO); 0.5% DMSO final in assay after 100 nL addition]. See, Chung et al.; “A fluorescence-based thiol quantification assay for ultra-high-throughput screening for inhibitors of coenzyme A production,” Assay Drug Dev Tech 2008; 6:361-374.
The reaction was initiated by adding malonyl-CoA, followed by incubation for 90 minutes at […]. A stock solution of the CPM reagent was prepared in DMSO at […] and stored at […]. To detect CoA produced in the FASN reaction, the CPM stock was diluted to […] in 70% ethanol and added at 4 μL/well to the assay plate. The reaction mixture was then incubated for 30 minutes. Fluorescence was measured using the EnVision™ 2102 multi-label plate reader (PerkinElmer, Waltham, Mass.) utilizing a general dual mirror, a 390 nm excitation filter and a 530 nm emission filter. Data analysis was performed using ActivityBase (IDBS, Guilford, UK). IC50 values were calculated by plotting the percent inhibition versus log 10 of the concentration of the compound, and fitting to the nonlinear regression sigmoidal dose-response (variable slope) equation in XLFit (IDBS).

T1 sequence (P49327 whole entry): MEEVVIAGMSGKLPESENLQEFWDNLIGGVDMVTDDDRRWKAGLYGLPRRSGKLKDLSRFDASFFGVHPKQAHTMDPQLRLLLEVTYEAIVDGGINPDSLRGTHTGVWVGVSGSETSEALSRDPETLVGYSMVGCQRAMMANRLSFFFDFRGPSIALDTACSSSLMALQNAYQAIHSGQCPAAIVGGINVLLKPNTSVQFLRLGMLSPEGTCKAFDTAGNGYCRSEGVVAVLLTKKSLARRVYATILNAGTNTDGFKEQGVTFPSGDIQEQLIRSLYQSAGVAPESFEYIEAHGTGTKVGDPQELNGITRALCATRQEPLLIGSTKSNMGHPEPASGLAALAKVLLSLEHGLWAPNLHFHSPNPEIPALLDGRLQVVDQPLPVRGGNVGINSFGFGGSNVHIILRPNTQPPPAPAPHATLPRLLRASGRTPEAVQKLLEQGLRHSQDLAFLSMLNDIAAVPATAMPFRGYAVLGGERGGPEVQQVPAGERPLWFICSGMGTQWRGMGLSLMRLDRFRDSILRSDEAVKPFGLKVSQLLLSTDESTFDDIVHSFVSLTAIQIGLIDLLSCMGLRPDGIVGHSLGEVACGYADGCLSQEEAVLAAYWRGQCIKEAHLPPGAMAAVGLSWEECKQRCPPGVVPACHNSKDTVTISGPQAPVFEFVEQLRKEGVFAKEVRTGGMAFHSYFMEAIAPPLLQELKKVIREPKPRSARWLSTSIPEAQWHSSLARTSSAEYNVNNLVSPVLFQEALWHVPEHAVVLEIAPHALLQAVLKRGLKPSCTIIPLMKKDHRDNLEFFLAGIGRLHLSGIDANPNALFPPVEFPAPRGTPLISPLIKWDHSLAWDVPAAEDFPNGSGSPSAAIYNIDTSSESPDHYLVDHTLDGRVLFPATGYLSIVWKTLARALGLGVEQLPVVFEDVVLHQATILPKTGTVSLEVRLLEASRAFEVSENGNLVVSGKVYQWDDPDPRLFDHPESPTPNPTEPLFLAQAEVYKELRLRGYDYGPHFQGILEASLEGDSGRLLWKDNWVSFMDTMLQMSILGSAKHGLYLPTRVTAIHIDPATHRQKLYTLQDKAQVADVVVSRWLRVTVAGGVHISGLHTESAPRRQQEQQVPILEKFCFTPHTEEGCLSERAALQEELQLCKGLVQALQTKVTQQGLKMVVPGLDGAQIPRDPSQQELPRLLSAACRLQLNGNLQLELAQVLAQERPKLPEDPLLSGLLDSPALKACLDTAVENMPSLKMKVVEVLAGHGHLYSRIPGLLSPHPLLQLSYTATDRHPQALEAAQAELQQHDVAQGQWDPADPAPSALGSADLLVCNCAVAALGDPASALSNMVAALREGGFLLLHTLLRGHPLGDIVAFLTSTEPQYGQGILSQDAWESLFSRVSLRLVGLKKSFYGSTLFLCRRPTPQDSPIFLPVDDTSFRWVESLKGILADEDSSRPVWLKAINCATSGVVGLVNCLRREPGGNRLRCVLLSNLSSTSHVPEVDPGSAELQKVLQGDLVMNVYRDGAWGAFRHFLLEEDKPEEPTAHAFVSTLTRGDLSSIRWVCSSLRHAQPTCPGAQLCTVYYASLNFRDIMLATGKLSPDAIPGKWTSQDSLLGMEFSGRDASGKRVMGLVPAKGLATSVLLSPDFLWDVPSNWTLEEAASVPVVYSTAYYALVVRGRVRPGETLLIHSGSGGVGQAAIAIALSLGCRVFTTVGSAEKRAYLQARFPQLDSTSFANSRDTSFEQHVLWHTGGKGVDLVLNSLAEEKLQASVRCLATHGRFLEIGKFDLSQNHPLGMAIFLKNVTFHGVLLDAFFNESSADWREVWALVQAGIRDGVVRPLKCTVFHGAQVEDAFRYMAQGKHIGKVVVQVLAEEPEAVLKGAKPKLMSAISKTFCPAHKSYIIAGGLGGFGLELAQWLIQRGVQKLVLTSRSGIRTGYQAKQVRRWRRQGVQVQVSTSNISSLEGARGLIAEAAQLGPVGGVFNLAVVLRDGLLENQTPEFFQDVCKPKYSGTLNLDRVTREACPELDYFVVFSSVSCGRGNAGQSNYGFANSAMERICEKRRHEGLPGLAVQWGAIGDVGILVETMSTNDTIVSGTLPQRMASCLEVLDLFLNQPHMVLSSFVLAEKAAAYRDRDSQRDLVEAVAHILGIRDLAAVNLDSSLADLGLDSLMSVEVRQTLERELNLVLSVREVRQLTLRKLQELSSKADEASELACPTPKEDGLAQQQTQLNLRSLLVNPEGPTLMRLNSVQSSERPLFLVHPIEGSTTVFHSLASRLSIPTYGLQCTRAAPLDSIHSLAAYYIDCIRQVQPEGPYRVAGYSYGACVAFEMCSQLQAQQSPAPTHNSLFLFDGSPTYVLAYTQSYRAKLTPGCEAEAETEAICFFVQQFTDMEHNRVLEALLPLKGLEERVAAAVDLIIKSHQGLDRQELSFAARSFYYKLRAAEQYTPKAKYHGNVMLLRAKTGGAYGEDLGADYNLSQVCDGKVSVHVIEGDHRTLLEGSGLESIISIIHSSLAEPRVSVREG

IC50, 1000 to 10000 nM:
Cc1c(-c2ccc(OC3CCN(C(=O)N4CCCCO4)CC3)cc2)ccc2cccnc12 [Example 558, [4-[4-(8-Methyl-7-quinolyl)phenoxy]-1-piperidyl]-(oxazinan-2-yl)methanone]
Cc1c(-c2ccc(OC3CCN(C(=O)OC4CCC4)CC3)cc2)ccc2cccnc12 [Example 561, Cyclobutyl 4-[4-(8-methyl-7-quinolyl)phenoxy]piperidine-1-carboxylate]

same assay, conditions: 5 nM FASN, 150 μM NADPH, 10 μM acetyl-CoA, 25 μM malonyl-CoA, 90 minutes incubation; read-out: IC50 data for Compounds of Formulae I-V/V(a): Activity

IC50, 1000 to 10000 nM:
O=C(C1CC1)N1CCC(Oc2ccc(-c3ccc4c(c3)OCCO4)cc2)CC1 [Example 503, Cyclopropyl-{4-[4-(2,3-dihydro-1,4-benzodioxin-6-yl)-phenoxy]-piperidin-1-yl}-methanone]
CCC(=O)N1CCC(Oc2ccc(-c3cnc4ccccc4c3)cc2OC)CC1 [Example 196, 1-[4-(2-Methoxy-4-quinolin-3-yl-phenoxy)-piperidin-1-yl]-propan-1-one]
O=C(C1CCC1)N1CCC(Oc2ccc(-c3cnc4c(c3)CCCC4)cc2)CC1 [Example 20, Cyclobutyl-{4-[4-(5,6,7,8-tetrahydroquinolin-3-yl)-phenoxy]-piperidin-1-yl}-methanone]
O=C(C1CC1)N1CCC(Oc2cccc(-c3cnc4ccccc4c3)c2)CC1 [Example 497, Cyclopropyl-[4-(3-quinolin-3-yl-phenoxy)-piperidin-1-yl]-methanone]

IC50, 100 to 999 nM:
CN(C)c1nccc2cc(-c3ccc(OC4CCN(C(=O)[C@H]5CCCO5)CC4)cc3)ccc12 [Example 453, {4-[4-(1-Dimethylaminoisoquinolin-6-yl)-phenoxy]-piperidin-1-yl}-(R)-tetrahyrofuran-2-yl methananone, HCl]
CCC(=O)N1CCC(Oc2ccc(-c3ccc4nccn4c3Cl)cc2)CC1 [Example 296, 1-{4-[4-(5-Chloroimidazo[1,2-a]pyridin-6-yl)-phenoxy]-piperidin-1-yl}-propan-1-one]
COc1nccc2cc(-c3ccc(OC4CCN(C(=O)C5CCC5)CC4)cc3)ccc12 [Example 434, Cyclobutyl-{4-[4-(1-methoxyisoquinolin-6-yl)-phenoxy]-piperidin-1-yl}-methanone]
O=C(C1CC1)N1CCC(Oc2ccc(-c3ccc4cccnc4c3)cn2)CC1 [Example 137, Cyclopropyl-[4-(5-quinolin-7-yl-pyridin-2-yloxy)-piperidin-1-yl]-methanone, HCl]
CCC(=O)N1CCC(Oc2ccc(-c3ccc4scnc4c3)cc2)CC1 [Example 269, 1-[4-(4-Benzothiazol-5-yl-phenoxy)-piperidin-1-yl]-propan-1-one; TFA salt]
CCC(=O)N1CCC(Oc2ccc(-c3ccc4sccc4c3)cc2)CC1 [Example 247, 1-[4-(4-Benzo[b]thiophen-5-yl-phenoxy)-piperidin-1-yl]-propan-1-one]

IC50, 1 to 99 nM:
O=C([C@@H]1CCCO1)N1CCC(Oc2ccc(-c3cnc4ccccc4c3)cc2)CC1 [Example 104, [4-(4-Quinolin-3-yl-phenoxy)-piperidin-1-yl]-(S)-tetrahydrofuran-2-yl-methanone, HCl]
COc1c(-c2ccc(OC3CCN(C(=O)[C@H]4CCCO4)CC3)cc2)ccc2cccnc12 [Example 272, {4-[4-(8-Methoxyquinolin-7-yl)-phenoxy]-piperidin-1-yl}-(R)-tetrahydro-furan-2-yl-methanone, TFA salt]
COCCOc1c(-c2ccc(OC3CCN(C(=O)[C@H]4CCCO4)CC3)cc2)ccc2cccnc12 [Example 186, [4-[4-[8-(2-Methoxyethoxy)-7-quinolyl]phenoxy]-1-piperidyl]-[(2R)-tetrahydrofuran-2-yl]methanone, HCl]
Cc1c(-c2ccc(OC3CCN(C(=O)C4CCC4)CC3)cc2)ccc2cccnc12 [Example 38]
CCC(=O)N1CCC(Oc2ccc(-c3cc(C)cc4ncccc34)cc2)CC1 [Example 348, 1-(4-(4-(7-methylquinolin-5-yl)phenoxy)piperidin-1-yl)propan-1-one HCl]
